The source of these data is PubChem BioAssay (NCI).

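A five-concentration, 48-hour dose response in 96-well plates underlies each endpoint, interpolated linearly between surrounding concentrations. TGI: concentration producing complete growth inhibition.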

Among the test systems are TK-10 renal; SK-MEL-28 melanoma; UACC-62 melanoma; BT-549 breast; COLO 205 colon; CAKI-1 renal; HOP-92 NSCLC; HT29 colon; MDA-MB-231 breast; MDA-N; SF-268 CNS; K-562 leukemia; NCI-H23 lung; NCI-H522 lung; SW-620 colon; MDA-MB-435; ACHN renal; PC-3 prostate; SK-MEL-5 melanoma.
Common to all, as to experiment: inhibition of tumour cell growth, NCI panel, 48 h

For the molecule `O=C(Cc1ccccc1)NNc1nc(NNC(=O)c2ccncc2)nc(Nc2ccccc2)n1`, the TGI in the assay on TK-10 renal, in the assay on SK-MEL-28 melanoma, in the assay on UACC-62 melanoma, with BT-549 breast, in the assay on COLO 205 colon and in the assay with CAKI-1 renal was more than 10 µM in each case. For the same molecule, the TGI with HOP-92 NSCLC, in the assay on HT29 colon, in the assay with MDA-MB-231 breast, with MDA-N, in the assay with SF-268 CNS and in the assay with K-562 leukemia was more than 10 µM throughout.
Regarding `COCOCC1CCCN1CN1CCC[C@H]1COCOC` (stereo partly specified), the TGI in the assay on TK-10 renal, in the assay on NCI-H23 lung, in the assay with SK-MEL-28 melanoma, with NCI-H522 lung, with UACC-62 melanoma and in the assay on COLO 205 colon was more than 100 µM each time. Further, the TGI in the assay on SW-620 colon, in the assay on CAKI-1 renal, with HOP-92 NSCLC, in the assay on MDA-MB-435, in the assay with ACHN renal and with PC-3 prostate was more than 100 µM throughout. The TGI in the assay with HT29 colon, with SK-MEL-5 melanoma, in the assay with MDA-MB-231 breast, in the assay with MDA-N, in the assay with SF-268 CNS and with K-562 leukemia was more than 100 µM in each case.
As for `CC(C)C1SCc2nc3ccccc3n21` (stereo unspecified), the TGI in the assay on TK-10 renal is more than 100 µM; with NCI-H23 lung it was more than 100 µM; in the assay with SK-MEL-28 melanoma, more than 100 µM; in the assay with NCI-H522 lung it was more than 100 µM; in the assay on UACC-62 melanoma it was more than 100 µM; with COLO 205 colon it was 26.8 µM. The TGI is more than 100 µM in the assay with SW-620 colon; more than 100 µM in the assay on CAKI-1 renal; more than 100 µM in the assay on HOP-92 NSCLC; 89.9 µM in the assay with MDA-MB-435; more than 100 µM with ACHN renal; 71.2 µM with PC-3 prostate. Further, the TGI is more than 100 µM in the assay with HT29 colon; 31 µM with SK-MEL-5 melanoma; 78.2 µM in the assay on MDA-MB-231 breast; more than 100 µM with MDA-N; more than 100 µM in the assay on SF-268 CNS; more than 100 µM with K-562 leukemia.
Regarding `CC(C)c1c(O[Si](C(C)C)(C(C)C)C(C)C)c2c3c(ccc4c3c1OC4(C)C)C(C)CC2` (stereo unspecified), the TGI with TK-10 renal, with NCI-H23 lung, with SK-MEL-28 melanoma, in the assay on NCI-H522 lung, with UACC-62 melanoma and in the assay with COLO 205 colon was more than 100 µM throughout. Moreover, the TGI in the assay with SW-620 colon, in the assay on CAKI-1 renal, in the assay on HOP-92 NSCLC, with MDA-MB-435, with ACHN renal and with PC-3 prostate was more than 100 µM throughout. Besides, the TGI with HT29 colon, in the assay on SK-MEL-5 melanoma, with MDA-MB-231 breast, in the assay with MDA-N, in the assay on SF-268 CNS and in the assay with K-562 leukemia was more than 100 µM in each case.
As to `CC(C)(C)CC(C)(C)N=C(N)NO`, the TGI in the assay with TK-10 renal, with NCI-H23 lung, in the assay with SK-MEL-28 melanoma, in the assay with NCI-H522 lung, in the assay on UACC-62 melanoma and in the assay with COLO 205 colon was more than 100 µM throughout. For the same molecule, the TGI with SW-620 colon is more than 100 µM; in the assay on CAKI-1 renal, more than 100 µM; in the assay with HOP-92 NSCLC it was more than 100 µM; in the assay on MDA-MB-435, more than 100 µM; in the assay with ACHN renal it was 23.4 µM; in the assay with PC-3 prostate, more than 100 µM. Moreover, the TGI in the assay with HT29 colon, in the assay with SK-MEL-5 melanoma, in the assay with MDA-MB-231 breast, in the assay on MDA-N, in the assay on SF-268 CNS and in the assay with K-562 leukemia was more than 100 µM throughout.
In the case of `COc1cc2c(cc1OC)C1CCc3ccccc3CN1CC2` (stereo unspecified), the TGI in the assay with TK-10 renal, in the assay on NCI-H23 lung, in the assay on SK-MEL-28 melanoma, with NCI-H522 lung, in the assay on UACC-62 melanoma and in the assay with COLO 205 colon was more than 100 µM throughout. For the same molecule, the TGI in the assay on SW-620 colon, with CAKI-1 renal, in the assay with HOP-92 NSCLC, in the assay on MDA-MB-435, in the assay with ACHN renal and with PC-3 prostate was more than 100 µM throughout. Besides, the TGI in the assay on HT29 colon, in the assay with SK-MEL-5 melanoma, in the assay with MDA-MB-231 breast, in the assay with MDA-N, with SF-268 CNS and with K-562 leukemia was more than 100 µM in each case.
Regarding `O=c1cc(-c2ccccc2)oc2ccc(-c3ccc4oc(-c5ccccc5)cc(=O)c4c3)cc12`, the TGI in the assay with TK-10 renal was 61.6 µM; in the assay with NCI-H23 lung, 34.5 µM; with UACC-62 melanoma, 31.8 µM; in the assay with COLO 205 colon, 41.5 µM; in the assay with SW-620 colon, more than 100 µM; in the assay on CAKI-1 renal, 46 µM. In addition, the TGI in the assay with HOP-92 NSCLC was 30.8 µM; with MDA-MB-435 it was 35.7 µM; in the assay with ACHN renal, 59.2 µM; in the assay with HT29 colon, more than 100 µM; in the assay on SK-MEL-5 melanoma it was 25.5 µM; in the assay with MDA-N, 29 µM. Also, in the assay on K-562 leukemia, the TGI was 34.3 µM.
In the case of `O=C1/C(=C/c2ccccc2)N=C(c2ccccc2)N1C1Nc2cc3c(cc2S1)NC(N1C(=O)/C(=C/c2ccccc2)N=C1c1ccccc1)S3` (stereo unspecified), the TGI was more than 100 µM in the assay with TK-10 renal; 39.3 µM in the assay on NCI-H23 lung; more than 100 µM with SK-MEL-28 melanoma; 0.0623 µM with NCI-H522 lung; 78.5 µM in the assay on SW-620 colon; more than 100 µM in the assay on CAKI-1 renal. Besides, the TGI was 8.27 µM in the assay with HOP-92 NSCLC; 47.1 µM in the assay with MDA-MB-435; more than 100 µM in the assay on ACHN renal; more than 100 µM in the assay on PC-3 prostate; more than 100 µM in the assay with HT29 colon; more than 100 µM in the assay with SK-MEL-5 melanoma. Moreover, the TGI in the assay with MDA-MB-231 breast, in the assay with MDA-N, in the assay with SF-268 CNS and in the assay with K-562 leukemia was more than 100 µM throughout.
